Entries after “also recorded” stand apart in the source; their conditions may differ.
Details: not given
Method: Method 1: Investigation of the Stability of Unsaturated Fatty Acids in the Formulations
The stabilizing action of substances on polyunsaturated fatty acids was investigated as follows:
Test A for Water-Soluble Substances:
0.125 mg of unsaturated fatty acid or Na salt (see tables) (sodium arachidonate, from Sigma, Munich, Germany) is dissolved in 0.05 ml of water. 0.2 ml of aqueous solution which contains 2 mg of stabilizer and can additionally contain 2 mg of stimulator is mixed in (cf. Table 1), 0.1 ml is then taken out immediately, extracted and analysed (see below). Further processing according to modification 1 or 2.
Modification 1 for Aqueous Solutions
After 24 hours incubation at 37° C., 0.1 ml is again taken, extracted and analysed (see below).
Modification 2 for Solid Mixtures (Lyophilisates)
The test solution is lyophilized, the lyophilisate is incubated for 24 hours at 37° C. and then dissolved again in the previous quantity of water, and 0.1 ml is taken, extracted and analysed (see below).
Test B for Water-Insoluble Substances:
0.125 mg of unsaturated fatty acid (arachidonic acid, 5,8,11,14,17-eicosapentaenoic acid or 8,11,14-eicosatrienoic acid, from Sigma, Munich) is dissolved in 0.05 ml of ethanol or dimethyl sulfoxide. 0.2 ml of ethanol (or dimethyl sulfoxide) which contains 2 mg of stabilizer and can additionally contain 2 mg of the stimulator (cf. Table 1) is added thereto, and 0.1 ml is taken immediately and, as below, extracted and analysed. Further treatment according to modification 1 or 2.
Modification 1 for Solutions
After 24 hours' incubation at 37° C., 0.1 ml is again taken, mixed with 0.1 ml of water, extracted and analysed.
Modification 2 for Solid Mixtures
The remaining solution is freed of solvent, incubated for 24 hours at 37° C. and then dissolved again in 0.15 ml of solvent, and 0.1 ml is taken, mixed with 0.1 ml of water, extracted and analysed.
0.05 ml of 1.2M aqueous citric acid solution is added to the samples obtained, and the samples are extracted with twice 0.5 ml of ethyl acetate, the ethyl acetate is removed from the combined extracts and the residue is dissolved in 0.8 ml of methanol and analysed by means of high-pressure liquid chromatography (HPLC) (Rad Pak C-18 column, 100×8 mm, from Waters, Konigstein, Germany, 1.5 ml/minute, solvent 800 ml of methanol, 200 ml of water and 0.1 ml of glacial acetic acid). The separation is monitored with a commercially available UV detector at 206 nm.
The prostaglandins PGE2, PGF2 alpha and PGD2 as products from arachidonic acid where quantified by means of method 2, and the sum was related as "total prostaglandin" to 100%. The quantity of "total prostaglandin" formed without the addition of a stimulator was set at f=1; the quantity formed after stimulation was related thereto. f=2 or f=3 therefore means twice or three times the stimulation under the conditions of method 2. The stability of the sample was investigated by means of method 1 (right-hand column). […] Values greater than 25-28% therefore represent a stabilization, and values smaller than 25-28% represent a destabilization. Example No. 1 was carried out without a stimulator.

Compound | stabilization of aqueous mixtures of unsaturated fatty acid and stimulators
O=C[C@H](O)[C@@H](O)[C@H](O)[C@H](O)CO [glucose, reference compound] | not stabilizing
OC[C@@H](O)[C@@H](O)[C@H](O)[C@@H](O)CO [sorbitol, reference compound] | not stabilizing
rhamnoglucose [reference compound] | not stabilizing

Same assay, conditions: 1440 min

Compound | Stabilization (% remaining unsaturated fatty acid by Method 1) [%]
OC[C@H]1O[C@@H]2O[C@H]3[C@H](O)[C@@H](O)[C@@H](O[C@H]4[C@H](O)[C@@H](O)[C@@H](O[C@H]5[C@H](O)[C@@H](O)[C@@H](O[C@H]6[C@H](O)[C@@H](O)[C@@H](O[C@H]7[C@H](O)[C@@H](O)[C@@H](O[C@H]1[C@H](O)[C@H]2O)O[C@@H]7CO)O[C@@H]6CO)O[C@@H]5CO)O[C@@H]4CO)O[C@@H]3CO [Example 62, alpha-Dextrin (Cyclohexaamylose)] | 60
OC[C@H]1O[C@@H]2O[C@H]3[C@H](O)[C@@H](O)[C@@H](O[C@H]4[C@H](O)[C@@H](O)[C@@H](O[C@H]5[C@H](O)[C@@H](O)[C@@H](O[C@H]6[C@H](O)[C@@H](O)[C@@H](O[C@H]7[C@H](O)[C@@H](O)[C@@H](O[C@H]8[C@H](O)[C@@H](O)[C@@H](O[C@H]9[C@H](O)[C@@H](O)[C@@H](O[C@H]1[C@H](O)[C@H]2O)O[C@@H]9CO)O[C@@H]8CO)O[C@@H]7CO)O[C@@H]6CO)O[C@@H]5CO)O[C@@H]4CO)O[C@@H]3CO [Example 64, gamma-Dextrin (Cyclooctaamylose)] | 75

Same assay, conditions: A) aqueous solution without stabilizer addition; 24 h 37° C.

Compound | Stability (% of remaining arachidonic acid by Method 1)
CCCCC/C=C\C/C=C\C/C=C\C/C=C\CCCC(=O)O [arachidonic acid] | 25-28%

Same assay, conditions: aqueous medium; result in words

Compound | undesired decomposition / byproducts of polyunsaturated fatty acid (arachidonic acid) with added stimulator
N[C@@H](Cc1c[nH]c2ccc(O)cc12)C(=O)O [5-hydroxytryptophan, reference compound] | considerably accelerated
CNCC(O)c1ccc(O)c(O)c1 (stereo not drawn) [adrenalin, reference compound] | considerably accelerated
Oc1ccc(O)cc1 [hydroquinone, reference compound] | markedly greater quantity; also recorded: considerably accelerated
NC[C@H](O)c1ccc(O)c(O)c1 [noradrenalin, reference compound] | considerably accelerated
N[C@@H](Cc1c[nH]c2ccccc12)C(=O)O [tryptophan, reference compound] | considerably accelerated
N[C@@H](Cc1ccc(O)cc1)C(=O)O [tyrosine] | completely stable

Same assay, conditions: fatty acid with stimulator; result in words

Compound | effect of solvent used instead of water on formation of undesired byproducts
CCC(C)O (stereo not drawn) [Example 2-butanol, 2-butanol] | additional destabilizing effect
C[S+](C)[O-] [dimethyl sulfoxide] | do not arise
CCO [ethanol] | do not arise
OCC(O)CO [glycerol] | do not arise
c1ccncc1 [pyridine] | additional destabilizing effect
polyethylene glycol | do not arise

From patent publication US5043328A, “Formulations containing unsaturated fatty acids for the synthesis of prostaglandins and hydroxy-fatty acids in biological systems” (priority 1986, dated 1991)
